The compounds below were run against T1, human recombinant IL-17A (Homo sapiens, UniProt Q16552) (assay: IL-17A AlphaLISA assay (block binding of IL-17A to its receptor IL-17RA)). Conditions: compounds pre-incubated with the IL-17A for 30 min (indicated by * in Table A); read-out: AlphaLISA pIC50 (converted).
T1 construct: purchased R&D Systems 7955-IL/CF
T1 sequence (Q16552 24-155): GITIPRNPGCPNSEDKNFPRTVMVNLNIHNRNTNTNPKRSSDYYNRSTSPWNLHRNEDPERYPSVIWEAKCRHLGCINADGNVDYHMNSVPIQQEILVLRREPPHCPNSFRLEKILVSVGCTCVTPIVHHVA
Summary of the method: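 PBS with 0.05% Tween-20 and 0.1% BSA. IL-17A stock 7.5 nM, IL-17RA/Fc stock 5 nM; compound–cytokine pre-incubation 24 h at RT, or 30 min where marked, then 90 min with receptor. pIC50 from 4-parameter logistic AlphaLISA signal, normalised to DMSO and 6 μM reference inhibitor.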

IC50 [nM] | SMILES
79.4 | CCc1nocc1C(=O)N[C@H](C(=O)Nc1ccc(-c2c(Cl)cnn2C)cn1)[C@H]1CC[C@H](C)CC1 [Example 201, N—((S)-2-((5-(4-chloro-1-methyl-1H-pyrazol-5-yl)pyridin-2-yl)amino)-1-((1r,4S)-4-methylcyclohexyl)-2-oxoethyl)-3-ethylisoxazole-4-carboxamide]
158 | CCc1nocc1C(=O)N[C@H](C(=O)Nc1ccc(-c2c(CO)cnn2C)cn1)C1CCCCCC1 [Example 202, (S)—N-(1-cycloheptyl-2-((5-(4-(hydroxymethyl)-1-methyl-1H-pyrazol-5-yl)pyridin-2-yl)amino)-2-oxoethyl)-3-ethylisoxazole-4-carboxamide]
79.4 | CCc1nocc1C(=O)N[C@H](C(=O)Nc1ccc(-c2c(C)noc2C)nc1)[C@H]1CC[C@H](C)CC1 [Example 203, N—((S)-2-((6-(3,5-dimethylisoxazol-4-yl)pyridin-3-yl)amino)-1-((1r,4S)-4-methylcyclohexyl)-2-oxoethyl)-3-ethylisoxazole-4-carboxamide]
200 | Cc1cnn(C)c1-c1ccc(NC(=O)[C@@H](NC(=O)c2ccnn2C(C)C)[C@H]2CC[C@H](C)CC2)cn1 [Example 204, N—((S)-2-((6-(1,4-dimethyl-1H-pyrazol-5-yl)pyridin-3-yl)amino)-1-((1r,4S)-4-methylcyclohexyl)-2-oxoethyl)-1-isopropyl-1H-pyrazole-5-carboxamide]
251 | CCn1nccc1C(=O)N[C@H](C(=O)Nc1ccc(-c2c(CO)cnn2C)cn1)[C@H]1CC[C@H](C)CC1 [Example 205, 1-ethyl-N—((S)-2-((5-(4-(hydroxymethyl)-1-methyl-1H-pyrazol-5-yl)pyridin-2-yl)amino)-1-((1r,4S)-4-methylcyclohexyl)-2-oxoethyl)-1H-pyrazole-5-carboxamide]
126 | Cc1noc(C)c1-c1ccc(NC(=O)[C@@H](NC(=O)c2ccnn2C(C)C)[C@H]2CC[C@H](C)CC2)cn1 [Example 206, N—((S)-2-((6-(3,5-dimethylisoxazol-4-yl)pyridin-3-yl)amino)-1-((1r,4S)-4-methylcyclohexyl)-2-oxoethyl)-1-isopropyl-1H-pyrazole-5-carboxamide]
501 | Cc1n[nH]c(C)c1-c1ccc(NC(=O)[C@@H](NC(=O)c2ccnn2C)C2CCCCC2)cn1 [Example 207, (S)—N-(1-cyclohexyl-2-((6-(3,5-dimethyl-1H-pyrazol-4-yl)pyridin-3-yl)amino)-2-oxoethyl)-1-methyl-1H-pyrazole-5-carboxamide]
63.1 | CCn1nccc1C(=O)N[C@H](C(=O)Nc1ccc(-c2c(C)n[nH]c2C)nc1)C1CCCCCC1 [Example 208, (S)—N-(1-cycloheptyl-2-((6-(3,5-dimethyl-1H-pyrazol-4-yl)pyridin-3-yl)amino)-2-oxoethyl)-1-ethyl-1H-pyrazole-5-carboxamide]
794 | Cc1n[nH]c(C)c1-c1ccc(NC(=O)[C@@H](NC(=O)c2cnnn2C)C2CCCCCC2)cn1 [Example 209, (S)—N-(1-cycloheptyl-2-((6-(3,5-dimethyl-1H-pyrazol-4-yl)pyridin-3-yl)amino)-2-oxoethyl)-1-methyl-1H-1,2,3-triazole-5-carboxamide]
63.1 | CCc1nocc1C(=O)N[C@H](C(=O)Nc1ccc(-c2c(C)n[nH]c2C)nc1)C1CCCCCC1 [Example 210, (S)—N-(1-cycloheptyl-2-((6-(3,5-dimethyl-1H-pyrazol-4-yl)pyridin-3-yl)amino)-2-oxoethyl)-3-ethylisoxazole-4-carboxamide]
158 | Cc1n[nH]c(C)c1-c1ccc(NC(=O)[C@@H](NC(=O)c2ccnn2C)[C@H]2CC[C@H](C)CC2)cn1 [Example 211, N—((S)-2-((6-(3,5-dimethyl-1H-pyrazol-4-yl)pyridin-3-yl)amino)-1-((1r,4S)-4-methylcyclohexyl)-2-oxoethyl)-1-methyl-1H-pyrazole-5-carboxamide]
100 | CCn1nccc1C(=O)N[C@H](C(=O)Nc1ccc(-c2c(C)n[nH]c2C)nc1)[C@H]1CC[C@H](C)CC1 [Example 212, N—((S)-2-((6-(3,5-dimethyl-1H-pyrazol-4-yl)pyridin-3-yl)amino)-1-((1r,4S)-4-methylcyclohexyl)-2-oxoethyl)-1-ethyl-1H-pyrazole-5-carboxamide]
100 | CCc1nocc1C(=O)N[C@H](C(=O)Nc1ccc(-c2c(C)n[nH]c2C)nc1)[C@H]1CC[C@H](C)CC1 [Example 213, N—((S)-2-((6-(3,5-dimethyl-1H-pyrazol-4-yl)pyridin-3-yl)amino)-1-((1r,4S)-4-methylcyclohexyl)-2-oxoethyl)-3-ethylisoxazole-4-carboxamide]
158 | Cc1cc(=O)n(C)c(C)c1-c1ccc(NC(=O)[C@@H](NC(=O)c2ccnn2C)C2CCCCCC2)nc1 [Example 214, (S)—N-(1-cycloheptyl-2-oxo-2-((1′,2′,4′-trimethyl-6′-oxo-1′,6′-dihydro-[3,3′-bipyridin]-6-yl)amino)ethyl)-1-methyl-1H-pyrazole-5-carboxamide]
126 | Cc1cc(=O)n(C)c(C)c1-c1ccc(NC(=O)[C@@H](NC(=O)c2ccnn2C)[C@H]2CC[C@H](C)CC2)nc1 [Example 215, 1-methyl-N—((S)-1-((1r,4S)-4-methylcyclohexyl)-2-oxo-2-((1′,2′,4′-trimethyl-6′-oxo-1′,6′-dihydro-[3,3′-bipyridin]-6-yl)amino)ethyl)-1H-pyrazole-5-carboxamide]
501 | Cc1nn(C)c(C)c1-c1ccc(NC(=O)[C@@H](NC(=O)c2ccnn2C)C2CCCCCC2)nc1 [Example 216, (S)—N-(1-cycloheptyl-2-oxo-2-((5-(1,3,5-trimethyl-1H-pyrazol-4-yl)pyridin-2-yl)amino)ethyl)-1-methyl-1H-pyrazole-5-carboxamide]
501 | Cc1nn(C)c(C)c1-c1ccc(NC(=O)[C@@H](NC(=O)c2ccnn2C)[C@H]2CC[C@H](C)CC2)nc1 [Example 217, 1-methyl-N—((S)-1-((1r,4S)-4-methylcyclohexyl)-2-oxo-2-((5-(1,3,5-trimethyl-1H-pyrazol-4-yl)pyridin-2-yl)amino)ethyl)-1H-pyrazole-5-carboxamide]
158 | Cc1n[nH]c(C)c1-c1ccc(NC(=O)[C@@H](NC(=O)c2ccnn2C)C2CCCCCC2)cn1 [Example 218, (S)—N-(1-cycloheptyl-2-((6-(3,5-dimethyl-1H-pyrazol-4-yl)pyridin-3-yl)amino)-2-oxoethyl)-1-methyl-1H-pyrazole-5-carboxamide]
126 | Cn1nccc1C(=O)N[C@H](C(=O)Nc1ccc(-c2c(C(F)(F)F)cnn2C)cn1)[C@H]1CC[C@H](C)CC1 [Example 219, 1-methyl-N—((S)-2-((5-(1-methyl-4-(trifluoromethyl)-1H-pyrazol-5-yl)pyridin-2-yl)amino)-1-((1r,4S)-4-methylcyclohexyl)-2-oxoethyl)-1H-pyrazole-5-carboxamide]
31.6 | Cc1cnn(C)c1-c1ccc(NC(=O)C(NC(=O)c2ccnn2C)C2C3(CC3)CCC23CC3)nc1 (centres unmarked) [Example 220, N-(2-((5-(1,4-dimethyl-1H-pyrazol-5-yl)pyridin-2-yl)amino)-1-(dispiro[2.1.2^5.2^3]nonan-4-yl)-2-oxoethyl)-1-methyl-1H-pyrazole-5-carboxamide]
